Reference: patent publication US20230172935A1, “METHODS OF MONITORING KRAS MUTATIONS” (Cardiff Oncology, Inc., priority 2020, published 2023)

Legend:
[1] = system: mutant KRAS in cell free DNA in plasma; experiment: Phase 1b/2 mCRC study, plasma KRAS mutant by ddPCR; assay type: in vivo, human; details: with FOLFIRI and bevacizumab
Procedure: Participants must have histologically confirmed metastatic and unresectable disease, and previously failed treatment or be intolerant to fluoropyrimidine and oxaliplatin with or without bevacizumab.
KRAS in cell free DNA in plasma from patients was periodically quantified using droplet digital PCR (BioRad), where percentage of KRAS that is mutant KRAS was determined. The lower limit of sensitivity of this assay was 0.001% mutant KRAS.
KRAS MAF was measured by digital droplet PCR (ddPCR) at baseline (Cycle 1 Day 1, pre-dose) and on-treatment (Day 1 of Cycles 2 to 9). […] Clinical responses were observed across different KRAS variants, including the 3 most common in CRC. […] In addition, patients with PR and SD tended to have lower on-treatment KRAS MAF than patients with early PD.

DLD-1 cells = experiment: Cell viability (CellTiterGlo) in KRAS mutant and WT isogenic CRC cells; assay type: cell-based; details: 72h treatment
From the text: FIG. 5 is a graph showing cell viability in onvansertib-treated KRAS mutant and WT isogenic CRC cells.
(§1) Onvansertib, an oral and highly-selective PLK1 inhibitor, is a promising therapeutic option for KRAS-mutated CRC. PLK1, a key regulator of mitosis, is overexpressed in CRC and associated with poor clinical parameters.

[2] = system: HCT-116 KRAS mutant xenograft; experiment: HCT-116 KRAS-mutant CRC xenograft model; assay type: in vivo
From the text: FIG. 6A and FIG. 6B are graphs showing anti-tumor activity of onvansertib in combination with irinotecan and 5-FU in the HCT-116 KRAS-mutant CRC xenograft model.
as §1

PLK1 = PLK1 (Homo sapiens, UniProt P53350); details: including other PLK members; cited from earlier work
Chain of PLK1 (P53350 whole entry): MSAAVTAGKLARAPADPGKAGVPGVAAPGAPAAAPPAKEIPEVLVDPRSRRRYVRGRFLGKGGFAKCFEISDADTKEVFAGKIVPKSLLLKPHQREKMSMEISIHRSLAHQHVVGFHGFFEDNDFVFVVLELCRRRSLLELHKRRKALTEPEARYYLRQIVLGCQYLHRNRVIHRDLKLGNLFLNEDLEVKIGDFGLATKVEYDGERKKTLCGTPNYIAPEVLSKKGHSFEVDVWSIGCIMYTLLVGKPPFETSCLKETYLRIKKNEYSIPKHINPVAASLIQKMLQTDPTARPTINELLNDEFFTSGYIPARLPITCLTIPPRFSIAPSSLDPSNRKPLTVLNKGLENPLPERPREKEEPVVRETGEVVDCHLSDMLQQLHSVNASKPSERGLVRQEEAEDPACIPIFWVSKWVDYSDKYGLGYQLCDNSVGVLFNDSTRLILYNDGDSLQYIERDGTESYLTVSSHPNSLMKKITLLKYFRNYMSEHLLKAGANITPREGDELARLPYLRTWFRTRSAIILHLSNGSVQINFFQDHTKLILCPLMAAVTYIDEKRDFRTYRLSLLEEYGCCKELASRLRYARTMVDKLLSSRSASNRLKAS

[3] = system: cell lines, both from solid as well as hematologic tumors; details: large number of cell lines; cited from earlier work
cancer cell lines = details: cited from earlier work
xenograft tumor = details: well tolerated doses, oral administration; cited from earlier work
[4] = system: HT29 human colon adenocarcinoma xenografts; details: in combination with irinotecan; cited from earlier work
[5] = system: disseminated model of AML; details: in combination with cytarabine; cited from earlier work
[6] = cited from earlier work
[7] = cited from earlier work; remark: listed apart in the source
[8] = system: advanced/metastatic solid tumors; details: evaluable patients; cited from earlier work

CN1CCN(c2ccc(OC(F)(F)F)c(Nc3ncc4c(n3)-c3c(c(C(N)=O)nn3CCO)CC4)c2)CC1 [onvansertib, 1-(2-hydroxyethyl)-8-{[5-(4-methylpiperazin-1-yl)-2-(trifluoromethoxy)phenyl]amino}-4,5-dihydro-1H-pyrazolo[4,3-h] quinazoline-3-carboxamide]
patients with KRAS undetectable within the 1st cycle ([1]; 12 mg/m^2, 4 patients detectable at baseline): 4 patients | patients with KRAS undetectable within the 1st cycle ([1]; 15 mg/m^2, 2 patients detectable at baseline): 1 patients | change of KRAS mutant variants within the first cycle ([1]; five variants in 6 patients, 12 and 15 mg/m^2): decreased | mitotic arrest and cell death, mutant KRAS vs wild-type cells (DLD-1 cells): more profound mitotic arrest and cell death in mutant KRAS cells | combination effect ([2]; in combination with irinotecan and 5-FU): synergy | anti-tumor activity ([2]; single agent): potent anti-tumor activity | specificity for PLK1 among a panel of 296 kinases (PLK1): high specificity | potency in proliferation assays [3]: low nanomolar activity | effect on cell cycle (cancer cell lines): mitotic cell-cycle arrest followed by apoptosis | xenograft tumor growth (xenograft tumor): inhibits xenograft tumor growth | tumor regression compared to each agent alone [4]: enhanced tumor regression | survival of animals [5]: prolonged survival | half-life ([6]; in vivo): about 24 hours | oral bioavailability ([6]; rodent and nonrodent species): good oral bioavailability | primary dose-limiting toxicities ([7]; in vivo): neutropenia and thrombocytopenia | recovery of hematologic toxicities ([7]; reversible): ≤ 3 weeks | recommended phase 2 dose ([7]; single agent): 24 mg/m^2 | patients with stable disease [8]: 5 of 16
